Data: US20090018150A1, “5-Ht2b Receptor Antagonists” (ASTERAND UK LIMITED, priority 2003, published 2009)
Counter-ions that a name gives are not always drawn.

How the values were obtained:
[1] = target: T1, human cloned 5-HT2B receptors (Homo sapiens, UniProt P41595); assay: Human cloned 5-HT2B receptor binding assay; conditions: [3H]LSD (1 nM) displacement, membranes of CHO-K1 cells expressing cloned 5-HT2B receptor; read-out: 5-HT2B pKi (converted)
T1 construct: expressed in transfected cells; host or cells: CHO-K1
T1 sequence (P41595 whole entry): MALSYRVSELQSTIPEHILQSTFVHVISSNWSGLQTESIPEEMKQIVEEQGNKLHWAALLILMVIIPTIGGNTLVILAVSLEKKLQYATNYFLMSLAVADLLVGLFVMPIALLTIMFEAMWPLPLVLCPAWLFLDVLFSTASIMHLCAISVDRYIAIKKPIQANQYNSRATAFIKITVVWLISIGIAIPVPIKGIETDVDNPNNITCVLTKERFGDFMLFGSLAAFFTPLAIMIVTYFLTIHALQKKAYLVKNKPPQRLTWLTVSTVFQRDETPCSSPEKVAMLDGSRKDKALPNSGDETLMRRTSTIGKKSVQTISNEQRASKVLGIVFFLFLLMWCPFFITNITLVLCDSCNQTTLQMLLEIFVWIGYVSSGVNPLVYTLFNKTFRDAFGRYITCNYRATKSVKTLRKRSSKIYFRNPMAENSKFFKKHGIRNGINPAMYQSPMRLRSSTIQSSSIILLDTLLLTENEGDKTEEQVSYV
Procedure: The binding affinity of the compounds for human cloned 5-HT2B receptors was determined using the following assay.
CHO-K1 cells expressing cloned 5-HT2B receptor were maintained in Ultra-CHO medium containing 400 μg/ml of G418, 100 U/ml penicillin, 100 μg/ml streptomycin, 2.5 μg/ml fungizone and 1-foetal bovine serum, in 95/5% O2/CO2 at 37° C. The cells were harvested using 0.25% trypsin and were centrifuged at 800 rpm for 8 minutes. The cells were homogenised in 50 mM HEPES buffer containing 1 mM disodium EDTA and 1 mM PMSF at pH 7.4, using a Dounce homogeniser (20 strokes). The homogenate was centrifuged at 2280 rpm (1000 g) and 4° C. for 10 minutes, after which the supernatant was removed by decanting. The pellet was re-homogenised as above, and the resulting supernatant removed and combined with that already obtained. The supernatant solution was then centrifuged at 18300 rpm (40000 g) for 10 minutes at 4° C. using a Sorvall centrifuge. The supernatant was removed, and the pellet was re-suspended in 50 mM buffer at pH 7.4 using a Ultra-turrax T25 Polytron, before centrifugation again at 40000 g as above. This wash procedure was repeated, after which the membrane preparation was stored at a concentration of 1 mg/ml at −80° C. until use.
The membranes were thawed rapidly and diluted in assay buffer containing Tris-HCl (50 mM, pH 7.4), ascorbic acid (0.1°) and calcium chloride (4 mM). The membranes were homogenised to resuspend them, prior to adding 10 or 15 μg of membranes to assay wells containing [^3H]LSD (1 nM), assay buffer (50 mM Tris, 4 mM calcium chloride and 0.1° ascorbic acid) containing pargyline (10 μM), and the test compounds (1×10^−10 to 1×10^−4M). Non specific binding was determined in the presence of 100 μM 5-HT. After 30 minutes incubation at 37° C., the assay mixture was filtered through a combination of GF-C and GF-B filters, pre-soaked in 1% polyethyleneimine, using a Brandel cell harvester, and were washed three times using 50 mM Tris-HCl. Radioactivity retained on the filters was determined by liquid scintillation counting. For each test compound, the concentration that inhibited binding of [^3H]LSD by 50% was determined using curve fitting software (Prism). Kd values (concentration of LSD required to occupy 50% of the receptor binding sites at equilibrium) determined from saturation binding studies were then used to calculate inhibition dissociation constants (Ki) using the following equation: […]
This approach follows that set out in Kenakin, T. P. Pharmacologic analysis of drug-receptor interaction. Raven Press, New York, 2nd Edition.

[2] = target: T2, cloned human 5-HT2A receptor (Homo sapiens, UniProt P28223); assay: Human 5-HT2A receptor binding assay; conditions: [3H]ketanserin (1 nM) displacement, CHO-K1 cell membranes; read-out: 5-HT2A pKi (converted)
T2 construct: purchased Euroscreen; host or cells: CHO-K1
T2 sequence (P28223 whole entry): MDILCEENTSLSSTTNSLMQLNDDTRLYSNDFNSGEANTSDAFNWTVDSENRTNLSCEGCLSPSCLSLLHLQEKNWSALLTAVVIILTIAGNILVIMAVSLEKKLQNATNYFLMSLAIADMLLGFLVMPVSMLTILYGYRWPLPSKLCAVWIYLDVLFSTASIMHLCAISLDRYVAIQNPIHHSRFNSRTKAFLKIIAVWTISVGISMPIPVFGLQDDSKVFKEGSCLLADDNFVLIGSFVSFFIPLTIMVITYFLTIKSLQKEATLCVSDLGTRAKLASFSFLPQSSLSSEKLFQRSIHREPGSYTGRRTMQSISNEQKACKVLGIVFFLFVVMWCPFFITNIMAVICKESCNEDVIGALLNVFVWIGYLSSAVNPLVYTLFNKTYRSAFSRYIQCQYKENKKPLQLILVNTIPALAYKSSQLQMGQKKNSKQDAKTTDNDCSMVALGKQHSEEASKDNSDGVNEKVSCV
Procedure: (§1) The binding affinity of ligands for human 5-HT2A and 5-HT2C receptors was determined using the following assay.
Membrane preparations from CHO-K1 cells expressing the cloned human 5-HT2A receptor were obtained (Euroscreen). The membranes were thawed rapidly and diluted in assay buffer containing Tris-HCl (50 mM, pH 7.7). The membranes were resuspended by homogenisation, prior to adding 15 μg of membranes to assay wells containing [3H]ketanserin (1 nM), assay buffer (50 mM Tris at pH 7.4) containing pargyline (10 μM), and test compounds (1×10^−10 to 1×10^−4M). Non specific binding was determined in the presence of 100 μM mianserin. After 15 minutes incubation at 37° C., the assay mixture was filtered through a combination of GF-C and GF-B filters, pre-soaked in 0.05% Brij, using a Brandel cell harvester, and were washed three times using ice cold Tris-HCl buffer (50 mM). Radioactivity retained on the filters was determined by liquid scintillation counting. For each test compound, the concentration that inhibited binding of [^3H]ketanserin by 50% was determined using curve fitting software (Prism). Kd values (concentration of ketanserin required to occupy 50% of the receptor binding sites at equilibrium) determined from saturation binding studies were then used to calculate inhibition dissociation constants (Ki) using the following equation: […]

[3] = target: T3, cloned human 5-HT2C receptor (Homo sapiens, UniProt P28335); assay: Human 5-HT2C receptor binding assay; conditions: [3H]mesulergine (1 nM) displacement, CHO-K1 cell membranes; read-out: 5-HT2C pKi (converted)
T3 construct: purchased Euroscreen; host or cells: CHO-K1
T3 sequence (P28335 33-458): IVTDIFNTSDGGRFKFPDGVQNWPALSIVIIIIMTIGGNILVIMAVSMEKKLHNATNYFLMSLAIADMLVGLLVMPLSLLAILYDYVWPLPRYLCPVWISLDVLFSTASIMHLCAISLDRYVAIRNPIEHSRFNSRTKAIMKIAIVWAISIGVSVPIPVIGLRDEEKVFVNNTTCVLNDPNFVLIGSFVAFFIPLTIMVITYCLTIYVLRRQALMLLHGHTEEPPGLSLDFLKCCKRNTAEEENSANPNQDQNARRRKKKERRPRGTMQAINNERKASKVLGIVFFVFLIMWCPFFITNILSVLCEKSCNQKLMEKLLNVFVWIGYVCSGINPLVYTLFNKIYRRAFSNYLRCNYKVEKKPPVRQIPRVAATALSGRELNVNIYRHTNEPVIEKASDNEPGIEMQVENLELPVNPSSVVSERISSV
Procedure: as §1
Membrane preparations from CHO-K1 cells expressing the cloned human 5-HT2C receptor were obtained (Euroscreen). The membranes were thawed rapidly and diluted in assay buffer containing Tris-HCl (50 mM, pH 7.7), ascorbic acid (0.1%) and pargyline (10 μM). The membranes were resuspended by homogenisation, prior to adding 6 μg of membranes to assay wells containing [^3H]mesulergine (1 nM), assay buffer (50 mM Tris at pH 7.7 and 0.1% ascorbic acid) containing pargyline (10 μM), and test compounds (1×10^−10 to 1×10^−4M). Non specific binding was determined in the presence of 100 μM mianserin. After 30 minutes incubation at 37° C., the assay mixture was filtered through a combination of GF-C and GF-B filters, pre-soaked in 1% bovine serum albumin, using a Brandel cell harvester, and were washed three times using ice cold Tris-HCl buffer (50 mM). Radioactivity retained on the filters was determined by liquid scintillation counting. For each test compound, the concentration that inhibited binding of [^3H]mesulergine by 50% was determined using curve fitting software (Prism). Kd values (concentration of mesulergine required to occupy 50% of the receptor binding sites at equilibrium) determined from saturation binding studies were then used to calculate inhibition dissociation constants (Ki) using the following equation: […]

Row | Compound | Ki [1] [µM] | Ki [2] [µM] | Ki [3] [µM]
1 | Cc1cc(Nc2cccc(O)c2)nc(N)n1 [Compound 2Q, 3-(2-amino-6-methyl-pyrimidin-4-ylamino)-phenol hydrochloride] | < 1 | > 1 | > 1
2 | Cc1cc(Nc2cccc3c2CCC3)nc(N)n1 [Compound 2R, N^4-indan-4-yl-6-methyl-pyrimidine-2,4-diamine hydrochloride] | < 1 | > 1 | > 1
3 | Cc1cc(Nc2ccc(C)c(Br)c2)nc(N)n1 [Compound 2S, N^4-(3-bromo-4-methyl-phenyl)-6-methyl-pyrimidine-2,4-diamine hydrochloride] | < 0.1 | > 1 | > 0.316
4 | Cc1cc(Nc2cccc(Br)c2C)nc(N)n1 [Compound 2T, N^4-(3-bromo-2-methyl-phenyl)-6-methyl-pyrimidine-2,4-diamine hydrochloride] | < 1 | > 1 | > 1
5 | Cc1ccc(Nc2cc(C)nc(N)n2)cc1 [Compound 2U, 6-methyl-N^4-p-tolyl-pyrimidine-2,4-diamine hydrochloride] | < 1 | > 1 | > 1
6 | CC(=O)Nc1ccc(Nc2cc(C)nc(N)n2)cc1 [Compound 2V, N-[4-(2-amino-6-methyl-pyrimidin-4-ylamino)-phenyl]-acetamide hydrochloride] | < 1 | > 1 | > 1
7 | Cc1cc(Nc2cccc(CO)c2)nc(N)n1 [Compound 2X, [3-(2-amino-6-methyl-pyrimidin-4-ylamino)-phenyl]-methanol hydrochloride] | < 1 | > 1 | > 1
8 | Cc1cc(Nc2ccc(I)c(Cl)c2)nc(N)n1 [Compound 2Y, N-(3-chloro-4-iodo-phenyl)-6-methyl-pyrimidine-2,4-diamine hydrochloride] | < 0.1 | > 1 | > 1
9 | Cc1cc(Oc2cccc3ccccc23)nc(N)n1 [Compound 4B, 4-methyl-6-(naphthalen-1-yloxy)-pyrimidin-2-ylamine] | < 0.1 | > 10 | > 10
10 | Cc1cc(Oc2cccc(-c3ccccc3)c2)nc(N)n1 [Compound 4C, 4-(biphenyl-3-yloxy)-6-methylpyrimidin-2-ylamine] | < 1 | > 10 | > 10
11 | Cc1cc(Nc2cccc(-c3ccccc3)c2)nc(N)n1 [Compound 10A, N^4-biphenyl-3-yl-6-methyl-pyrimidine-2,4-diamine trifluoroacetic acid] | < 0.1 | > 0.1 | > 0.316
12 | COc1ccc(-c2cccc(Nc3cc(C)nc(N)n3)c2)cc1OC [Compound 10B, N-(3′,4′-dimethoxy-biphenyl-3-yl)-6-methyl-pyrimidine-2,4-diamine trifluoroacetic acid] | < 1 | > 10 | > 10
13 | CC(=O)c1cccc(-c2cccc(Nc3cc(C)nc(N)n3)c2)c1 [Compound 10C, 1-[3′-(2-amino-6-methyl-pyrimidin-4-ylamino)-biphenyl-3-yl]-ethanone trifluoroacetic acid] | < 1 | > 0.316 | > 0.316
14 | Cc1cc(Nc2cccc(-c3cccnc3)c2)nc(N)n1 [Compound 10D, 6-methyl-N^4-(3-pyridin-3-yl-phenyl)-pyrimidine-2,4-diamine bis trifluoroacetic acid] | < 1 | > 1 | > 1
15 | Cc1cccc(-c2cccc(Nc3cc(C)nc(N)n3)c2)c1 [Compound 10E, 6-methyl-N^4-(3′-methyl-biphenyl-3-yl)-pyrimidine-2,4-diamine trifluoroacetic acid] | < 0.1 | > 0.1 | > 0.1
16 | COc1ccccc1-c1cccc(Nc2cc(C)nc(N)n2)c1 [Compound 10F, N^4-(2′-methoxy-biphenyl-3-yl)-6-methyl-pyrimidine-2,4-diamine trifluoroacetic acid] | < 0.1 | > 0.316 | > 0.1
17 | Cc1cc(Nc2cccc(-c3ccc(N(C)C)cc3)c2)nc(N)n1 [Compound 10H, N^4-(4′-dimethylamino-biphenyl-3-yl)-6-methyl-pyrimidine-2,4-diamine bis trifluoroacetic acid] | < 0.1 | > 0.316 | > 0.316
18 | CC(=O)Nc1cccc(-c2cccc(Nc3cc(C)nc(N)n3)c2)c1 [Compound 10I, N-[3′-(2-amino-6-methyl-pyrimidin-4-ylamino)-biphenyl-3-yl]-acetamide hydrochloride] | < 1 | > 10 | > 10
19 | Cc1cc(Nc2ccc(-c3ccccc3)cc2)nc(N)n1 [Compound 11A, N^4-biphenyl-4-yl-6-methyl-pyrimidine-2,4-diamine trifluoroacetic acid] | < 0.01 | > 1 | > 0.1
20 | Cc1cccc(-c2ccc(Nc3cc(C)nc(N)n3)cc2)c1 [Compound 11B] | < 0.01 | > 1 | > 0.0316
21 | Cc1cccc(-c2cc(Nc3cc(C)nc(N)n3)ccc2C)c1 [Compound 12, N^4-(6,3′-dimethyl-biphenyl-3-yl)-6-methyl-pyrimidine-2,4-diamine] | < 0.1 | > 1 | > 1
22 | Nc1nccc(Nc2ccc(I)cc2)n1 [Compound 16, N″-(4-Iodo-phenyl)-pyrimidine-2,4-diamine] | < 1 | > 1 | > 1
23 | CCOc1ccc2ccccc2c1-c1c[nH]c(NC(C)=O)n1 [Compound 103A, N-[4-(2-Ethoxy-naphthalen-1-yl)-1H-imidazol-2-yl]-acetamide] | < 0.1 | > 3.16 | > 1
